From ChEMBL document CHEMBL3885861, “Open TG-GATES”

Species on record: Rattus norvegicus
Assay: Open TG-GATES - Regimen: Single
Assay type: toxicity, organism-based, Sprague-Dawley
Parameters: regimen Single, gender Male, age 6 weeks
Details: in vivo, po, 0 mg/kg, route gavage, dose level Control; for APTT / Bas / Eos / Fbg / Hb / Ht / Lym / MCHC / MCV / Mono / Neu / PT / Plat / RBC / Ret / WBC: tissue Blood; for KIDNEY_L / KIDNEY_R / KIDNEY_TOTAL: tissue Kidney; for LIVER: tissue Liver; for ALP / ALT / AST / BUN / CRE / DBIL / GLC / IP / K / LDH / Na / PL / RALB / TBIL / TC / TG / TP / gamma-GTP: tissue Plasma

C#C[C@]1(O)CC[C@H]2[C@@H]3CCC4=Cc5oncc5C[C@]4(C)[C@H]3CC[C@@]21C [DANAZOL]
TERMINAL_BW (3 h): 212.9 g
APTT (3 h): 23 s
Bas (3 h): 0%
Eos (3 h): 1%
Fbg (3 h): 292.6 mg/dL
Hb (3 h): 13.2 g/dL
Ht (3 h): 40%
Lym (3 h): 77.2%
MCHC (3 h): 33.1%
MCV (3 h): 62.5 fL
Mono (3 h): 2.4%
Neu (3 h): 19.6%
PT (3 h): 15.8 s
Plat (3 h): 111.7 x10_4/uL
RBC (3 h): 641.4 x10_4/ul
Ret (3 h): 7%
WBC (3 h): 76.3 x10_2/uL
KIDNEY_L (3 h): 0.9 g
KIDNEY_R (3 h): 0.9 g
KIDNEY_TOTAL (3 h): 1.9 g
LIVER (3 h): 10.1 g
ALP (3 h): 1527.4 IU/L
ALT (3 h): 41.8 IU/L
AST (3 h): 78.2 IU/L
BUN (3 h): 14.2 mg/dL
CRE (3 h): 0.1 mg/dL
DBIL (3 h): 0 mg/dL
GLC (3 h): 187.6 mg/dL
IP (3 h): 7.9 mg/dL
K (3 h): 4.1 meq/L
LDH (3 h): 204.4 IU/L
Na (3 h): 142.8 meq/L
PL (3 h): 131.8 mg/dL
RALB (3 h): 3 g/dL
TBIL (3 h): 0.01 mg/dL
TC (3 h): 76.8 mg/dL
TG (3 h): 70.8 mg/dL
TP (3 h): 5.5 g/dL
gamma-GTP (3 h): 2 IU/L
TERMINAL_BW (6 h): 212.9 g
APTT (6 h): 23.5 s
Bas (6 h): 0%
Eos (6 h): 1%
Fbg (6 h): 300.6 mg/dL
Hb (6 h): 13.1 g/dL
Ht (6 h): 39.8%
Lym (6 h): 81.2%
MCHC (6 h): 32.8%
MCV (6 h): 63 fL
Mono (6 h): 2.2%
Neu (6 h): 14.8%
PT (6 h): 16.1 s
Plat (6 h): 114.9 x10_4/uL
RBC (6 h): 632 x10_4/ul
Ret (6 h): 7.2%
WBC (6 h): 105 x10_2/uL
KIDNEY_L (6 h): 0.9 g
KIDNEY_R (6 h): 1 g
KIDNEY_TOTAL (6 h): 1.9 g
LIVER (6 h): 9.1 g
ALP (6 h): 1276.8 IU/L
ALT (6 h): 39.4 IU/L
AST (6 h): 73.4 IU/L
BUN (6 h): 9.2 mg/dL
CRE (6 h): 0.1 mg/dL
DBIL (6 h): 0 mg/dL
GLC (6 h): 182 mg/dL
IP (6 h): 9 mg/dL
K (6 h): 4.3 meq/L
LDH (6 h): 168.6 IU/L
Na (6 h): 141 meq/L
PL (6 h): 118.2 mg/dL
RALB (6 h): 3 g/dL
TBIL (6 h): 0.02 mg/dL
TC (6 h): 65.4 mg/dL
TG (6 h): 49.4 mg/dL
TP (6 h): 5.3 g/dL
gamma-GTP (6 h): 1.4 IU/L
TERMINAL_BW (9 h): 209.9 g
APTT (9 h): 22.7 s
Bas (9 h): 0%
Eos (9 h): 0.2%
Fbg (9 h): 295.4 mg/dL
Hb (9 h): 13.3 g/dL
Ht (9 h): 40.9%
Lym (9 h): 83%
MCHC (9 h): 32.5%
MCV (9 h): 64 fL
Mono (9 h): 2%
Neu (9 h): 13.6%
PT (9 h): 16.3 s
Plat (9 h): 114.3 x10_4/uL
RBC (9 h): 639.2 x10_4/ul
Ret (9 h): 7.6%
WBC (9 h): 87.3 x10_2/uL
KIDNEY_L (9 h): 1 g
KIDNEY_R (9 h): 1 g
KIDNEY_TOTAL (9 h): 2 g
LIVER (9 h): 9.1 g
ALP (9 h): 1266 IU/L
ALT (9 h): 33.2 IU/L
AST (9 h): 63.6 IU/L
BUN (9 h): 11.2 mg/dL
CRE (9 h): 0.1 mg/dL
DBIL (9 h): 0 mg/dL
GLC (9 h): 199.8 mg/dL
IP (9 h): 10.1 mg/dL
K (9 h): 4.2 meq/L
LDH (9 h): 144.2 IU/L
Na (9 h): 141.8 meq/L
PL (9 h): 124 mg/dL
RALB (9 h): 2.9 g/dL
TBIL (9 h): 0.016 mg/dL
TC (9 h): 69.8 mg/dL
TG (9 h): 54.8 mg/dL
TP (9 h): 5.4 g/dL
gamma-GTP (9 h): 1.2 IU/L
TERMINAL_BW (24 h): 231.9 g
APTT (24 h): 23.6 s
Bas (24 h): 0%
Eos (24 h): 0.8%
Fbg (24 h): 281 mg/dL
Hb (24 h): 13.3 g/dL
Ht (24 h): 40.2%
Lym (24 h): 81.4%
MCHC (24 h): 32.9%
MCV (24 h): 63.2 fL
Mono (24 h): 2.2%
Neu (24 h): 14.8%
PT (24 h): 15.7 s
Plat (24 h): 114.7 x10_4/uL
RBC (24 h): 637.4 x10_4/ul
Ret (24 h): 7.3%
WBC (24 h): 102.5 x10_2/uL
KIDNEY_L (24 h): 1 g
KIDNEY_R (24 h): 1 g
KIDNEY_TOTAL (24 h): 2.1 g
LIVER (24 h): 11.3 g
ALP (24 h): 1604 IU/L
ALT (24 h): 48.2 IU/L
AST (24 h): 74.8 IU/L
BUN (24 h): 18.6 mg/dL
CRE (24 h): 0.1 mg/dL
DBIL (24 h): 0 mg/dL
GLC (24 h): 197.8 mg/dL
IP (24 h): 7.8 mg/dL
K (24 h): 4.2 meq/L
LDH (24 h): 173.8 IU/L
Na (24 h): 142.2 meq/L
PL (24 h): 140 mg/dL
RALB (24 h): 3 g/dL
TBIL (24 h): 0.006 mg/dL
TC (24 h): 74.6 mg/dL
TG (24 h): 93 mg/dL
TP (24 h): 5.5 g/dL
